Experiments:
[1] = target: Histone deacetylase (Homo sapiens) (UniProt Q13547+O15379+Q9UBN7+Q92769+Q9UQL6+Q8WUI4+Q9BY41+Q96DB2+P56524+Q9UKV0+Q969S8); details: HeLa, at 50 nM
Description: Inhibition of human HDAC in human HeLa cell nuclear extract at 50 nM after 15 mins by colorimetric assay

[2] = tested on: HeLa; assay: Selectivity ratio of IC50 for drug to SAHA against human HDAC in HeLa cell nuclear extract; assay type: cell-based
[3] = target: Histone deacetylase; assay: Inhibition of human HDAC in human HeLa cell nuclear extract after 15 mins by colorimetric assay; assay type: cell-based

| SMILES | inhibition [1] [%] | Ratio IC50 [2] | IC50 [3] [nM] |
| --- | --- | --- | --- |
| N#C[Se]CCCCCC(=O)Nc1ccccc1 | 95 | 20 | 8.9 |
| O=C(CCCCC[Se][Se]CCCCCC(=O)Nc1ccccc1)Nc1ccccc1 | 81 | > 20 | – |

Source: ChEMBL document CHEMBL1155391, “SelSA, selenium analogs of SAHA as potent histone deacetylase inhibitors” (Bioorg Med Chem Lett, 2010)
